Data taken from BindingDB's records for doi:10.1021/acsmedchemlett.8b00461 (Pfizer, 2019).

How the values were obtained:
[1] = Inhibition of BTK in anti-CD3/CD28-stimulated human CD4-positive T cells assessed as reduction in cell proliferation pretreated for 30 mins followed by anti-CD3/CD28-stimulation and measured after 3 days by [3H]-thymidine incorporation assay
[2] = Inhibition of BTK in goat anti-human IgM F(ab')2-stimulated human B cells assessed as reduction in cell proliferation pretreated for 30 mins followed by goat anti-human IgM F(ab')2-stimulation and measured after 3 days by [3H]-thymidine incorporation assay

SMILES | IC50 [1] | IC50 [2]
N#CN1CCC[C@@H](n2nc(-c3ccc(Oc4cccc(C(F)(F)F)n4)cc3)c(C(N)=O)c2N)C1 | 10100 nM | 15 nM
N#CN1CCC[C@@H](n2nc(-c3ccc(Oc4ccc(Cl)cn4)cc3)c(C(N)=O)c2N)C1 | > 10000 nM | 1.6 nM
N#CN1CCC[C@@H](n2nc(-c3ccc(Oc4ccc(F)cc4F)cc3)c(C(N)=O)c2N)C1 | > 10000 nM | 2.7 nM
N#CN1CCCC(n2nc(-c3ccc(Oc4ccc(Cl)cc4)cc3)c(C(N)=O)c2N)C1 (single isomer, unassigned) | 8150 nM | 1.7 nM
N#CN1CCC[C@@H](n2nc(-c3ccc(Oc4ncc(Cl)cc4F)cc3)c(C(N)=O)c2N)C1 [(R)-5-amino-3-(4-((5-chloro-3-fluoropyridin-2-yl)oxy)phenyl)-1-(1-cyanopiperidin-3-yl)-1H-pyrazole-4-carboxamide] | > 10000 nM | 19 nM
